Assay results from patent publication US20230181556A1, “USE OF PSYCHOTROPIC DRUGS FOR THE TREATMENT OF CORONAVIRUS INFECTIONS” (priority 2020, published 2023).
Entries after “also recorded” stand apart in the source; their conditions may differ.

Columns and labels:
[1] = tested on: viruses as listed per drug; settings: virus or effect named in the literature; cited from earlier work
[2] = under 20 μM concentrations; Hou et al.; cited from earlier work
Vero-E6 cells = experiment: cytotoxicity in mock infected cells; assay type: cell-based; settings: same experiment (10 μM, 5 μM and 2 μM)
Procedure: One day prior to the assay, Vero-E6 cells (ATCC® CRL-1586) were plated in a 96-wells flat bottom tissue culture treated plate at a density of 2×10^4 cells/well. On the day of the assay, Vero-E6 cells were pre-treated with the different concentration (i.e. 10 μM, 5 μM and 2 μM) of the indicated drugs diluted in Dulbecco's Modified Eagles Medium (DMEM). After 1 h, the cells were infected with 50 μl of a viral inoculum at 1×10^3 TCID50/ml and incubated for 2 h at 37° C. to allow infection. Then, the virus-drug mixture was removed, cells were rinsed 3 times with PBS and were further cultured with fresh drug-containing medium (DMEM 5% FBS) for 3 days until microscopic examination was performed. Cytotoxicity of the tested drugs were determined in the same experiment in mock infected cells. The half maximal inhibitory concentration (IC50) were analyzed by non-linear regression using a four-parameter dosage-response variable slope model with the GraphPad Prism 8.0.2 software (GraphPad Software, USA).

[3] = target: spike protein-ACE2 interaction (Homo sapiens, UniProt Q9BYF1); settings: Hou et al., Chemico-Biological Interactions 338 (2021) 109420; cited from earlier work
Sequence of spike protein-ACE2 interaction (Q9BYF1 18-805): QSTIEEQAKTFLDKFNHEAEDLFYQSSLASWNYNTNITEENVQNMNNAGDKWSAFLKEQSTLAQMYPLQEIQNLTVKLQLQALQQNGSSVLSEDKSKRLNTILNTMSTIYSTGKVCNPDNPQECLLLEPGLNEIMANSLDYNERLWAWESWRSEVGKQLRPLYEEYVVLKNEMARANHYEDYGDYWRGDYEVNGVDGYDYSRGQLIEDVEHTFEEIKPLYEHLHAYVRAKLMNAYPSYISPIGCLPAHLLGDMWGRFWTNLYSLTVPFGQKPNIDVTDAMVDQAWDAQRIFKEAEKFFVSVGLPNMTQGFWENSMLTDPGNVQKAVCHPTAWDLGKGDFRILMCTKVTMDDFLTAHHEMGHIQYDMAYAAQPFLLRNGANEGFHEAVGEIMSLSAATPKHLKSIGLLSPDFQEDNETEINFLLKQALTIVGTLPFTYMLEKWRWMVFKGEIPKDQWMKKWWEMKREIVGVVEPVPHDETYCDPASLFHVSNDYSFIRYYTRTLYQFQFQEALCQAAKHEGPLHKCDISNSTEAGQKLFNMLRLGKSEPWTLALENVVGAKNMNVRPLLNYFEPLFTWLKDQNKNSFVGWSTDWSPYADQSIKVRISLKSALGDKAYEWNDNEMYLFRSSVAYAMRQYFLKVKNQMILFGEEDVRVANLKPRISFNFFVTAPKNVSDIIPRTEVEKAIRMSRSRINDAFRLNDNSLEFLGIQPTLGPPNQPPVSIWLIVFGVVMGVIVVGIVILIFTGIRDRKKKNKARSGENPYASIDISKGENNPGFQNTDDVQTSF

phospholipidosis = settings: cited from earlier work

SMILES: CN(C)CCOC(C)(c1ccccc1)c1ccc(Cl)cc1 (stereo not drawn) [Chlorphenoxamine]
- Examples of published in vitro antiviral activity [1]: MERS, SARS

SMILES: CN(C)CCCN1c2ccccc2CCc2ccc(Cl)cc21 [Clomipramine]
- Examples of published in vitro antiviral activity [1]: MERS, SARS

SMILES: Clc1ccc2c(c1)CCc1cccnc1C2=C1CCNCC1 [Desloratadine]
- Cytotoxicity [2]: No cytotoxicity was observed
- Cytotoxicity (Vero-E6 cells): not found to be cytotoxic

SMILES: COc1ccc2[nH]cc(CCNC(C)=O)c2c1 [Melatonin]
- Examples of published in vitro antiviral activity [1]: Possible roles

SMILES: CCOC(=O)N1CCC(=C2c3ccc(Cl)cc3CCc3cccnc32)CC1 [Loratadine]
- Cytotoxicity [2]: No cytotoxicity was observed
- block of spike protein-ACE2 interaction [3]: efficient to block spike protein-ACE2 interaction

SMILES: CCN(CC)CCCC(C)Nc1ccnc2cc(Cl)ccc12 (stereo not drawn) [Chloroquine]
- Examples of published in vitro antiviral activity [1]: MERS, SARS,; also recorded: Filovirus
- PLD, known (phospholipidosis): PLD compound

SMILES: CN1CCCC(n2nc(Cc3ccc(Cl)cc3)c3ccccc3c2=O)CC1 (stereo not drawn) [Azelastine]
- Cytotoxicity (Vero-E6 cells): not found to be cytotoxic

SMILES: CCN(CC)CCOc1ccc(C(=C(Cl)c2ccccc2)c2ccccc2)cc1 [Clomifene]
- Examples of published in vitro antiviral activity [1]: Ebola, HCV

SMILES: CN[C@H]1CC[C@@H](c2ccc(Cl)c(Cl)c2)c2ccccc21 [Sertraline]
- Examples of published in vitro antiviral activity [1]: Ebola virus; also recorded: Zika Virus; also recorded: HIV in vivo
- PLD, known (phospholipidosis): PLD compound

SMILES: CC(CN1c2ccccc2Sc2ccccc21)N(C)C (stereo not drawn) [Promethazine]
- Examples of published in vitro antiviral activity [1]: Ebola (Sci Transl Med
- Cytotoxicity (Vero-E6 cells): not found to be cytotoxic

SMILES: Clc1ccc(C(OCCN2CCCCC2)c2ccccc2)cc1 (stereo not drawn) [Cloperastine]
- Examples of published in vitro antiviral activity [1]: SARS-CoV-2

SMILES: CN(C)CCCN1c2ccccc2Sc2ccc(Cl)cc21 [Chlorpromazine]
- Examples of published in vitro antiviral activity [1]: MERS, SARS
- PLD, known (phospholipidosis): PLD agent

SMILES: CCN(CCO)CCCC(C)Nc1ccnc2cc(Cl)ccc12 (stereo not drawn) [Hydroxyl-chloroquine]
- Examples of published in vitro antiviral activity [1]: SARS-Cov-2

SMILES: O=C(CCCN1CCC(O)(c2ccc(Cl)cc2)CC1)c1ccc(F)cc1 [Haloperidol]
- Examples of published in vitro antiviral activity [1]: SARS-CoV-2

SMILES: O=C(O)COCCN1CCN(C(c2ccccc2)c2ccc(Cl)cc2)CC1 (stereo not drawn) [Cetirizine]
- Examples of published in vitro antiviral activity [1]: HRV (Antiviral
